Key:
IL-6 = IL-6 inhibition in LPS-stimulated human peripheral blood mononuclear cells (HTRF); assay type: cell-based; settings: Homo sapiens, PBMC; for EC50: huPBMCs, LPS 50 ng/mL, 22 hours, IL-6 HTRF; for inhibition at 10 µM: read-out: percent inhibition at 10 μM
Method: Fresh Normal PB MNC (Catalog #PB001, AllCells, Alameda, Calif.) were shipped overnight at 4° C. and resuspended in Roswell Park Memorial Institute (RPMI) 1640 Medium, with GlutaMAX Supplement (Catalog #61870127, ThermoFisher Scientific, Waltham, Mass.) supplemented with 1% Penicillin-Streptomycin (Catalog #15140163. ThermoFisher Scientific, Waltham, Mass.) and 1% fetal bovine serum (FBS) (Catalog #16140089, ThermoFisher Scientific, Waltham, Mass.) assay media. Fresh normal human peripheral blood mononuclear cells (huPBMCs) were resuspended in 1% FBS-RPMI assay media with 1% Penicillin-Streptomycin 1% to a cell concentration of 1×10e6 cells/mL. […] 50 ng/mL of Lipopolysaccharides from Escherichia coli 0111:B4 (Catalog #L5293-2ML, Sigma-Aldrich, St. Louis, Mo.) was added after 2 hours and cells were incubated for another 22 hours at 37° C.-5% CO2. After 22 hour incubation, a mixture of anti-IL6 XL665 and anti-IL-6 Cryptate diluted in reconstitution buffer (Catalog #62IL6PEC, Cisbio Inc., Bedford, Mass.) was added to each well. Following incubation for 3 hours at room temperature, Homogeneous Time-Resolved Fluorescence (HTRF) was measured using the Envision (Perkin Elmer, Shelton, Conn.) at 665 nm and […]. The ratio of fluorescence at 665 nm to 620 nm was used as a readout for IL-6 quantification. All samples were processed in duplicate. Readings were normalized to DMSO treated cells and normalized activities were utilized for EC50 calculations.

[1] = tested on: primary human fibroblasts derived from IPF patients (LL29 cells); test: Inhibition of the fibrotic process: αSMA staining in TGF-β1 treated LL29 fibroblasts; assay type: cell-based; settings: Homo sapiens, Fibroblast, 96 h; LL29 cells, TGF-β1 20 ng/mL, 4 days, % αSMA positive cells
Method: Representative compounds were screened using primary human fibroblasts (derived from IPF patients) treated with TGF-β1 to determine their ability to inhibit the fibrotic process.
LL29 cells were plated at 1,500 cells/well in 70 μL/well F12 medium supplemented with 1% Fetal Bovine Serum. […] Wells treated with TGF-β1 and containing DMSO were used as positive control, and cells with only DMSO were negative control. […] Following incubation for 4 days, SYTOX green nucleic acid stain (Life Technologies [Thermo Fisher Scientific]) was added to the wells at a final concentration of 1 μM and incubated at room temperature for 30 min.

[2] = tested on: SW480 colon carcinoma cells; test: Cell viability assay (CellTiter-Glo) in SW480 colon carcinoma cells; assay type: cell-based, human; settings: Homo sapiens, 96 h, four days
Method: Representative compounds were screened using the assay procedure to assess the effect on cell viability as described below.
SW480 colon carcinoma cells were transduced with a lentiviral vector expressing luciferase with a human Sp5 promoter consisting of a sequence of eight TCF/LEF binding sites. SW480 cells stably expressing the Sp5-Luc reporter gene and a hygromycin resistance gene were selected by treatment with 150 μg/mL of hygromycin for 7 days. These stably transduced SW480 cells were expanded in cell culture and used for all further screening activities.
For the Cell Viability Assays, the cells were plated at 2,000 cells/well in 384-well plates with a DMEM medium containing 1% fetal bovine serum, and 1% Penicillin-Streptomycin and incubated for […] at 37° C. and 5% CO2. Eight replicates of DMSO-treated cells served as controls and cells treated with compound were performed in duplicate.
After incubation, 10 μL of CellTiter-Glo (Promega) was added to each well allowed to incubate for approximately 12 minutes. This reagent “results in cell lysis and generation of a luminescent signal proportional to the amount of ATP present. The amount of ATP is directly proportional to the number of cells present in culture, in agreement with previous reports. The CellTiter-Glo® Assay generates a “glow-type” luminescent signal, produced by the luciferase reaction (Promega.com)”.

[3] = tested on: Wnt activity (Sp5-Luc reporter in SW480 cells); test: Screening assay for Wnt activity: Sp5-Luc reporter gene assay in SW480 colon carcinoma cells; assay type: cell-based, human; settings: Homo sapiens, 36 to 48 hours
Text: The screening assay for Wnt activity is described as follows. Reporter cell lines can be generated by stably transducing cancer cell lines (e.g., colon cancer) or primary cells (e.g., IEC-6 intestinal cells) with a lentiviral construct that includes a Wnt-responsive promoter driving expression of the firefly luciferase gene.
SW480 colon carcinoma cells were transduced with a lentiviral vector expressing luciferase with a human Sp5 promoter consisting of a sequence of eight TCF/LEF binding sites. SW480 cells stably expressing the Sp5-Luc reporter gene and a hygromycin resistance gene were selected by treatment with 150 μg/mL of hygromycin for 7 days. These stably transduced SW480 cells were expanded in cell culture and used for all further screening activities. […] For Sp5-Luc reporter gene assays, the cells were plated at 4,000 cells/well in 384-well plates with a DMEM medium containing 1% fetal bovine serum, and 1% Penicillin-Streptomycin and incubated for 36 to 48 hours at 37° C. and 5% CO2. Following incubation, 15 μl of BriteLite Plus luminescence reagent (Perkin Elmer) was added to each well of the 384-well assay plates. The plates were placed on an orbital shaker for 2 min and then luminescence was quantified using the Envision (Perkin Elmer) plate reader. Readings were normalized to DMSO only treated cells, and normalized activities were utilized for EC50 calculations using the dose-response log (inhibitor) vs. response-variable slope (four parameters) nonlinear regression feature available in GraphPad Prism 5.0 (or Dotmatics).

DYRK1A kinase = DYRK1A kinase (Homo sapiens (Human), UniProt Q13627); test: DYRK1A kinase assay (Ser/Thr 18 peptide Z-lyte FRET); assay type: biochemical; settings: read-out: EC50 (method: IC50)
Method: Representative compounds were screened using the assay procedure for DYRK1A kinase activity as described below.
This is a non-radioactive assay using fluorescence resonance energy transfer (FRET) between coumarin and fluorescein to detect kinase activity which is represented as a ratio of coumarin emission/fluorescein emission.
The mixture was allowed to incubate with the representative compounds for one hour at room temperature. All reactions were performed in duplicate. Unphosphorylated (“0% Control”) and phosphorylated (“100% control”) forms of Ser/Thr 18 served as control reactions. Additionally, an 11-point dose-response curve of Staurosporine (1 uM top) was run to serve as a positive compound control.
After incubation, Development Reagent A was diluted in Development Buffer then added to the reaction and allowed to further incubate for one hour at room temperature.

GSK3β kinase = GSK3β kinase (Homo sapiens (Human), UniProt P49841); test: GSK3β kinase assay (Ser/Thr 09 peptide Z-lyte FRET); assay type: biochemical; settings: read-out: EC50 (method: IC50)
GSK3β kinase, sequence (P49841 whole entry): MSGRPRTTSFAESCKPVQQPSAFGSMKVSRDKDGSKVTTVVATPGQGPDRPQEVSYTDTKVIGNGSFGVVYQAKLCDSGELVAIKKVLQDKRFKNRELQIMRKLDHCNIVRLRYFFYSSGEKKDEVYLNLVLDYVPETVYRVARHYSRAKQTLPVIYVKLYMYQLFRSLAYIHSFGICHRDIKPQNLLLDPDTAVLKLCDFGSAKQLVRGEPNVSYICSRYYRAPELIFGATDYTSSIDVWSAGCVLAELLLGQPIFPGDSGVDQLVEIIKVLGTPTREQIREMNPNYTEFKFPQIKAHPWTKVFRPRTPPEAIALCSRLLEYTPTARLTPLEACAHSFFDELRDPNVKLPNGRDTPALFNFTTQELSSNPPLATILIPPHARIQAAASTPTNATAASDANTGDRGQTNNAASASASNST
Method: Representative compounds were screened using the assay procedure for GSK3β kinase activity as described below.
This is a non-radioactive assay using fluorescence resonance energy transfer (FRET) between coumarin and fluorescein to detect kinase activity which is represented as ratio of coumarin emission/fluorescein emission.
The mixture is allowed to incubate with the representative compounds for one hour at room temperature. All reactions were performed in duplicate. Unphosphorylated (“0% Control”) and phosphorylated (“100% control”) forms of Ser/Thr 18 serve as control reactions.
After incubation, diluted Development Buffer is added to the reaction and allowed to further incubate for one hour at room temperature.
Dose-response curves are generated and inhibitory concentration (IC50) values are calculated using non-linear regression curve fit in the Dotmatics' Studies Software (Bishops Stortford, UK).

EC50 (IL-6) [nM]	EC50 [2] [nM]	EC50 [3] [nM]	IC50 (DYRK1A kinase) [nM]	IC50 (GSK3β kinase) [nM]	SMILES	inhibition at 10 µM (IL-6) [%]	EC50 [1] [nM]
> 10000	732	798	4	272	O=C(Nc1ccc(N2CCCC2)nc1)c1n[nH]c2cc(F)c(-c3cnn(C4CCNCC4)c3)cc12 [Compound 94, 6-Fluoro-5-(1-(piperidin-4-yl)-1H-pyrazol-4-yl)-N-(6-(pyrrolidin-1-yl)pyridin-3-yl)-1H-indazole-3-carboxamide]	5	1380
1270	4770	1650	6	31	CN1CC2(CCC(NC(=O)c3n[nH]c4ccc(-c5cnn(C)c5)cc34)CC2)C1 [Compound 45, 5-(1-Methyl-1H-pyrazol-4-yl)-N-(2-methyl-2-azaspiro [3.5]nonan-7-yl)-1H-indazole-3-carboxamide]	–	355
9150	> 10000	> 10000	67	1060	Cc1noc(C)c1-c1ccc2[nH]nc(C(=O)NC3CCN(CC(C)(C)F)CC3)c2c1 [Compound 43, 5-(3,5-Dimethylisoxazol-4-yl)-N-(1-(2-fluoro-2-methylpropyl)piperidin-4-yl)-1H-indazole-3-carboxamide]	–	2170
1930	1080	1720	45	687	CC(C)(F)CN1CCC(NC(=O)c2n[nH]c3ccc(-c4cnn(C5CC5)c4)cc23)CC1 [Compound 40, 5-(1-Cyclopropyl-1H-pyrazol-4-yl)-N-(1-(2-fluoro-2-methylpropyl)piperidin-4-yl)-1H-indazole-3-carboxamide]	–	68
1140	454	249	1	18	CN1CCN(Cc2ccc(NC(=O)c3n[nH]c4cc(F)c(-c5cnn(C)c5)cc34)cc2)CC1 [Compound 78, 6-Fluoro-5-(1-methyl-1H-pyrazol-4-yl)-N-(4-((4-methylpiperazin-1-yl)methyl)phenyl)-1H-indazole-3-carboxamide]	–	545
> 10000	> 10000	> 10000	1820	903	Cc1nn(C)cc1-c1ccc2[nH]nc(C(=O)NC3CCC(F)(F)CC3)c2c1 [Compound 21, N-(4,4-Difluorocyclohexyl)-5-(1,3-dimethyl-1H-pyrazol-4-yl)-1H-indazole-3-carboxamide]	15.5	294
> 10000	300	1340	2	21	Cn1cc(-c2cc3c(C(=O)Nc4ccc5c(c4)CNC5)n[nH]c3cc2F)cn1 [Compound 84, 6-Fluoro-N-(isoindolin-5-yl)-5-(1-methyl-1H-pyrazol-4-yl)-1H-indazole-3-carboxamide]	2.1	1690
2280	354	269	2	98	Cc1ncc(NC(=O)c2n[nH]c3ccc(-c4cnn(C5CCNCC5)c4)cc23)s1 [Compound 97, N-(2-Methylthiazol-5-yl)-5-(1-(piperidin-4-yl)-1H-pyrazol-4-yl)-1H-indazole-3-carboxamide]	–	291
> 10000	> 10000	> 10000	46	24	Cc1ncc(-c2ccc3[nH]nc(C(=O)N[C@@H]4CCCC[C@H]4F)c3c2)n1C [Compound 13, 5-(1,2-Dimethyl-1H-imidazol-5-yl)-N-((1R,2R)-2-fluorocyclohexyl)-1H-indazole-3-carboxamide]	–	1390
> 10000	> 10000	2010	25	61	Cc1ncc(-c2ccc3[nH]nc(C(=O)NC4CCC(F)(F)CC4)c3c2)n1C [Compound 22, N-(4,4-Difluorocyclohexyl)-5-(1,2-dimethyl-1H-imidazol-5-yl)-1H-indazole-3-carboxamide]	10.2	2200
2560	305	560	16	558	CN1CCC(n2cc(-c3cc4c(C(=O)Nc5ccc(F)cc5)n[nH]c4cc3F)cn2)CC1 [Compound 51, 6-Fluoro-N-(4-fluorophenyl)-5-(1-(1-methylpiperidin-4-yl)-1H-pyrazol-4-yl)-1H-indazole-3-carboxamide]	–	816
> 10000	4500	1460	4450	704	O=C(Nc1ccc(F)cc1)c1n[nH]c2ccc(-c3cnn(C4CC4)c3)cc12 [Compound 46, 5-(1-Cyclopropyl-1H-pyrazol-4-yl)-N-(4-fluorophenyl)-1H-indazole-3-carboxamide]	48.3	543
3680	3070	1050	117	64	O=C(NC1CCC(F)(F)CC1)c1n[nH]c2ccc(-c3cnn(C4CC4)c3)cc12 [Compound 19, 5-(1-Cyclopropyl-1H-pyrazol-4-yl)-N-(4,4-difluorocyclohexyl)-1H-indazole-3-carboxamide]	–	1180
